Data: the NIST ThermoML archive (doi:10.1016/j.fluid.2018.04.024)
± gives the expanded uncertainty stated by the source.

Conditions: Liquid, Vibrating tube method

With `CCCCCCCC(=O)OC` [methyl octanoate] the mass density (293.15 K, 100 kPa) was 876.9 ± 0.9 kg/m3, the mass density (293.15 K, 1000 kPa) was 877.02 ± 0.9 kg/m3 and the mass density (293.15 K, 3000 kPa) was 878.65 ± 0.91 kg/m3. The mass density (293.15 K, 5000 kPa) was 879.78 ± 0.91 kg/m3, the mass density (293.15 K, 10000 kPa) was 883.45 ± 0.92 kg/m3 and the mass density (293.15 K, 15000 kPa) was 886.82 ± 0.93 kg/m3. It also gave a mass density (293.15 K, 20000 kPa) of 890.07 ± 0.94 kg/m3, a mass density (293.15 K, 25000 kPa) of 893.28 ± 0.94 kg/m3 and a mass density (293.15 K, 30000 kPa) of 896.35 ± 0.95 kg/m3. It also gave a mass density (293.15 K, 35000 kPa) of 899.25 ± 0.96 kg/m3, a mass density (293.15 K, 40000 kPa) of 902.05 ± 0.97 kg/m3 and a mass density (293.15 K, 50000 kPa) of 907.81 ± 0.98 kg/m3. It also gave a mass density (293.15 K, 60000 kPa) of 912.62 ± 0.99 kg/m3, a mass density (303.15 K, 100 kPa) of 867.63 ± 0.89 kg/m3 and a mass density (303.15 K, 1000 kPa) of 868.42 ± 0.9 kg/m3. It also gave a mass density (303.15 K, 3000 kPa) of 869.93 ± 0.9 kg/m3, a mass density (303.15 K, 5000 kPa) of 871.47 ± 0.9 kg/m3 and a mass density (303.15 K, 10000 kPa) of 875.12 ± 0.91 kg/m3. It also gave a mass density (303.15 K, 15000 kPa) of 878.71 ± 0.92 kg/m3, a mass density (303.15 K, 20000 kPa) of 882.04 ± 0.93 kg/m3 and a mass density (303.15 K, 25000 kPa) of 885.35 ± 0.94 kg/m3. It also gave a mass density (303.15 K, 30000 kPa) of 888.57 ± 0.95 kg/m3, a mass density (303.15 K, 35000 kPa) of 891.59 ± 0.96 kg/m3 and a mass density (303.15 K, 40000 kPa) of 894.49 ± 0.96 kg/m3. The mass density (303.15 K, 50000 kPa) was 900.27 ± 0.98 kg/m3, the mass density (303.15 K, 60000 kPa) was 905.64 ± 0.99 kg/m3 and the mass density (313.15 K, 100 kPa) was 859.3 ± 0.89 kg/m3. The mass density (313.15 K, 1000 kPa) was 859.59 ± 0.89 kg/m3, the mass density (313.15 K, 3000 kPa) was 861.28 ± 0.89 kg/m3 and the mass density (313.15 K, 5000 kPa) was 862.89 ± 0.9 kg/m3. It also gave a mass density (313.15 K, 10000 kPa) of 866.8 ± 0.91 kg/m3, a mass density (313.15 K, 15000 kPa) of 870.52 ± 0.92 kg/m3 and a mass density (313.15 K, 20000 kPa) of 874.1 ± 0.92 kg/m3. It also gave a mass density (313.15 K, 25000 kPa) of 877.59 ± 0.93 kg/m3, a mass density (313.15 K, 30000 kPa) of 880.87 ± 0.94 kg/m3 and a mass density (313.15 K, 35000 kPa) of 884.11 ± 0.95 kg/m3. For the same compound, the mass density (313.15 K, 40000 kPa) was 887.04 ± 0.96 kg/m3, the mass density (313.15 K, 50000 kPa) was 893.07 ± 0.98 kg/m3 and the mass density (313.15 K, 60000 kPa) was 898.5 ± 0.99 kg/m3. For the same compound, the mass density (323.15 K, 100 kPa) was 850.11 ± 0.88 kg/m3, the mass density (323.15 K, 1000 kPa) was 850.91 ± 0.88 kg/m3 and the mass density (323.15 K, 3000 kPa) was 852.59 ± 0.88 kg/m3. For the same compound, the mass density (323.15 K, 5000 kPa) was 854.3 ± 0.89 kg/m3, the mass density (323.15 K, 10000 kPa) was 858.46 ± 0.9 kg/m3 and the mass density (323.15 K, 15000 kPa) was 862.36 ± 0.91 kg/m3. The mass density (323.15 K, 20000 kPa) was 866.24 ± 0.92 kg/m3, the mass density (323.15 K, 25000 kPa) was 869.67 ± 0.93 kg/m3 and the mass density (323.15 K, 30000 kPa) was 873.15 ± 0.94 kg/m3. It also gave a mass density (323.15 K, 35000 kPa) of 876.46 ± 0.95 kg/m3, a mass density (323.15 K, 40000 kPa) of 879.75 ± 0.96 kg/m3 and a mass density (323.15 K, 50000 kPa) of 885.93 ± 0.98 kg/m3. The mass density (323.15 K, 60000 kPa) was 891.84 ± 0.99 kg/m3, the mass density (333.15 K, 100 kPa) was 841.41 ± 0.87 kg/m3 and the mass density (333.15 K, 1000 kPa) was 842.13 ± 0.87 kg/m3. It also gave a mass density (333.15 K, 3000 kPa) of 844.08 ± 0.88 kg/m3, a mass density (333.15 K, 5000 kPa) of 845.82 ± 0.88 kg/m3 and a mass density (333.15 K, 10000 kPa) of 850.11 ± 0.89 kg/m3. The mass density (333.15 K, 15000 kPa) was 854.18 ± 0.9 kg/m3, the mass density (333.15 K, 20000 kPa) was 858.22 ± 0.91 kg/m3 and the mass density (333.15 K, 25000 kPa) was 862.06 ± 0.92 kg/m3. It also gave a mass density (333.15 K, 30000 kPa) of 865.57 ± 0.94 kg/m3, a mass density (333.15 K, 35000 kPa) of 869.05 ± 0.95 kg/m3 and a mass density (333.15 K, 40000 kPa) of 872.61 ± 0.96 kg/m3. It also gave a mass density (333.15 K, 50000 kPa) of 878.98 ± 0.98 kg/m3, a mass density (333.15 K, 60000 kPa) of 884.95 ± 1 kg/m3 and a mass density (343.15 K, 100 kPa) of 832.2 ± 0.86 kg/m3. It also gave a mass density (343.15 K, 1000 kPa) of 833.32 ± 0.86 kg/m3, a mass density (343.15 K, 3000 kPa) of 835.25 ± 0.87 kg/m3 and a mass density (343.15 K, 5000 kPa) of 837.24 ± 0.87 kg/m3. For the same compound, the mass density (343.15 K, 10000 kPa) was 841.71 ± 0.88 kg/m3, the mass density (343.15 K, 15000 kPa) was 846.06 ± 0.9 kg/m3 and the mass density (343.15 K, 20000 kPa) was 850.39 ± 0.91 kg/m3. For the same compound, the mass density (343.15 K, 25000 kPa) was 854.17 ± 0.92 kg/m3, the mass density (343.15 K, 30000 kPa) was 858.07 ± 0.93 kg/m3 and the mass density (343.15 K, 35000 kPa) was 861.81 ± 0.94 kg/m3. For the same compound, the mass density (343.15 K, 40000 kPa) was 865.19 ± 0.95 kg/m3, the mass density (343.15 K, 50000 kPa) was 872.01 ± 0.98 kg/m3 and the mass density (343.15 K, 60000 kPa) was 877.98 ± 1 kg/m3. The mass density (353.15 K, 100 kPa) was 823.55 ± 0.85 kg/m3, the mass density (353.15 K, 1000 kPa) was 824.37 ± 0.85 kg/m3 and the mass density (353.15 K, 3000 kPa) was 826.59 ± 0.86 kg/m3. It also gave a mass density (353.15 K, 5000 kPa) of 828.51 ± 0.86 kg/m3, a mass density (353.15 K, 10000 kPa) of 833.34 ± 0.88 kg/m3 and a mass density (353.15 K, 15000 kPa) of 838.05 ± 0.89 kg/m3. For the same compound, the mass density (353.15 K, 20000 kPa) was 842.32 ± 0.9 kg/m3, the mass density (353.15 K, 25000 kPa) was 846.49 ± 0.92 kg/m3 and the mass density (353.15 K, 30000 kPa) was 850.48 ± 0.93 kg/m3. For the same compound, the mass density (353.15 K, 35000 kPa) was 854.32 ± 0.94 kg/m3, the mass density (353.15 K, 40000 kPa) was 857.88 ± 0.95 kg/m3 and the mass density (353.15 K, 50000 kPa) was 864.82 ± 0.98 kg/m3. For the same compound, the mass density (353.15 K, 60000 kPa) was 871.35 ± 1 kg/m3, the mass density (363.15 K, 100 kPa) was 814.86 ± 0.84 kg/m3 and the mass density (363.15 K, 1000 kPa) was 815.91 ± 0.85 kg/m3. The mass density (363.15 K, 3000 kPa) was 818.18 ± 0.85 kg/m3, the mass density (363.15 K, 5000 kPa) was 820.31 ± 0.86 kg/m3 and the mass density (363.15 K, 10000 kPa) was 825.1 ± 0.87 kg/m3. For the same compound, the mass density (363.15 K, 15000 kPa) was 830.33 ± 0.89 kg/m3, the mass density (363.15 K, 20000 kPa) was 834.62 ± 0.9 kg/m3 and the mass density (363.15 K, 25000 kPa) was 838.84 ± 0.91 kg/m3. The mass density (363.15 K, 30000 kPa) was 843.09 ± 0.93 kg/m3, the mass density (363.15 K, 35000 kPa) was 847.13 ± 0.94 kg/m3 and the mass density (363.15 K, 40000 kPa) was 851.06 ± 0.95 kg/m3. The mass density (363.15 K, 50000 kPa) was 858.24 ± 0.98 kg/m3 and the mass density (363.15 K, 60000 kPa) was 865.07 ± 1 kg/m3.
